Species: Rattus norvegicus
Assay: DrugMatrix - Regimen: Daily Repeat
Type: toxicity, organism-based, Sprague-Dawley
Parameters: regimen Daily Repeat, gender Male, age 6-8 weeks
Details: in vivo, po, route oral GAVAGE, vehicle 100 % WATER; for ABSOLUTE BASOPHIL / ABSOLUTE EOSINOPHIL / ABSOLUTE LYMPHOCYTE / ABSOLUTE MONOCYTE / ABSOLUTE SEGMENTED NEUTROPHIL / BASOPHIL / EOSINOPHIL / ERYTHROCYTE COUNT / HEMATOCRIT / HEMOGLOBIN / LEUKOCYTE COUNT / LYMPHOCYTE / MEAN CORPUSCULAR HEMOGLOBIN / MEAN CORPUSCULAR HEMOGLOBIN CONCENTRATION / MEAN CORPUSCULAR VOLUME / MONOCYTE / NEUTROPHIL / NUCLEATED RED BLOOD CELLS / PLATELET COUNT: tissue Blood; for ALANINE AMINOTRANSFERASE / ALBUMIN / ALKALINE PHOSPHATASE / ASPARTATE AMINOTRANSFERASE / BLOOD UREA NITROGEN / CARBON DIOXIDE / CHLORIDE / CHOLESTEROL / CREATINE PHOSPHOKINASE / CREATININE / GLUCOSE / LIPASE / PHOSPHORUS / POTASSIUM / SODIUM / TOTAL BILIRUBIN / TOTAL PROTEIN / URIC ACID: tissue Plasma
[1] = 175 mg/kg, 120 h, dose level High, time 5 day
[2] = […], 72 h, dose 5.7 mg/Kg, dose level Low, time 3 day
[3] = […], 120 h, dose 5.7 mg/Kg, dose level Low, time 5 day

CC(C)NCC(O)COc1cccc2ccccc12 (stereo unspecified) [PROPRANOLOL]
ABSOLUTE BASOPHIL [1]: 0 CELLS/uL | ABSOLUTE EOSINOPHIL [1]: 0 CELLS/uL | ABSOLUTE LYMPHOCYTE [1]: 13526.33 CELLS/uL | ABSOLUTE MONOCYTE [1]: 232.67 CELLS/uL | ABSOLUTE SEGMENTED NEUTROPHIL [1]: 741 CELLS/uL | BASOPHIL [1]: 0% | EOSINOPHIL [1]: 0% | ERYTHROCYTE COUNT [1]: 5.28 x10E6/uL | HEMATOCRIT [1]: 34.3% | HEMOGLOBIN [1]: 13.2 G/DL | LEUKOCYTE COUNT [1]: 14.5 x10E3/uL | LYMPHOCYTE [1]: 93.33% | MEAN CORPUSCULAR HEMOGLOBIN [1]: 25 pg | MEAN CORPUSCULAR HEMOGLOBIN CONCENTRATION [1]: 38.5 G/DL | MEAN CORPUSCULAR VOLUME [1]: 65 fL | MONOCYTE [1]: 1.67% | NEUTROPHIL [1]: 5% | NUCLEATED RED BLOOD CELLS [1]: 0 /100WBC | PLATELET COUNT [1]: 1299 x10E3/uL | ALANINE AMINOTRANSFERASE [1]: 57.33 u/L | ALBUMIN [1]: 3.97 G/DL | ALKALINE PHOSPHATASE [1]: 397.33 u/L | ASPARTATE AMINOTRANSFERASE [1]: 73.67 u/L | BLOOD UREA NITROGEN [1]: 17 mg/dL | CARBON DIOXIDE [1]: 29 mmol/L | CHLORIDE [1]: 101 MEQ/L | CHOLESTEROL [1]: 78.67 mg/dL | CREATINE PHOSPHOKINASE [1]: 314.67 u/L | CREATININE [1]: 0.18 mg/dL | GLUCOSE [1]: 149 mg/dL | LIPASE [1]: 10 u/L | PHOSPHORUS [1]: 13.43 mg/dL | POTASSIUM [1]: 6.7 MEQ/L | SODIUM [1]: 144.77 MEQ/L | TOTAL BILIRUBIN [1]: 0.2 mg/dL | TOTAL PROTEIN [1]: 5.6 G/DL | URIC ACID [1]: 1.33 mg/dL | ABSOLUTE BASOPHIL [2]: 0 CELLS/uL | ABSOLUTE EOSINOPHIL [2]: 0 CELLS/uL | ABSOLUTE LYMPHOCYTE [2]: 11391.33 CELLS/uL | ABSOLUTE MONOCYTE [2]: 180.33 CELLS/uL | ABSOLUTE SEGMENTED NEUTROPHIL [2]: 2228.33 CELLS/uL | BASOPHIL [2]: 0% | EOSINOPHIL [2]: 0% | ERYTHROCYTE COUNT [2]: 5.65 x10E6/uL | HEMATOCRIT [2]: 35.6% | HEMOGLOBIN [2]: 13.2 G/DL | LEUKOCYTE COUNT [2]: 13.8 x10E3/uL | LYMPHOCYTE [2]: 82.33% | MEAN CORPUSCULAR HEMOGLOBIN [2]: 23.37 pg | MEAN CORPUSCULAR HEMOGLOBIN CONCENTRATION [2]: 37.07 G/DL | MEAN CORPUSCULAR VOLUME [2]: 62.97 fL | MONOCYTE [2]: 1.33% | NEUTROPHIL [2]: 16.33% | NUCLEATED RED BLOOD CELLS [2]: 0.33 /100WBC | PLATELET COUNT [2]: 1291 x10E3/uL | ALANINE AMINOTRANSFERASE [2]: 52.67 u/L | ALBUMIN [2]: 4.07 G/DL | ALKALINE PHOSPHATASE [2]: 368.67 u/L | ASPARTATE AMINOTRANSFERASE [2]: 80 u/L | BLOOD UREA NITROGEN [2]: 14 mg/dL | CARBON DIOXIDE [2]: 27.67 mmol/L | CHLORIDE [2]: 102.67 MEQ/L | CHOLESTEROL [2]: 83 mg/dL | CREATINE PHOSPHOKINASE [2]: 155.33 u/L | CREATININE [2]: 0.26 mg/dL | GLUCOSE [2]: 153.33 mg/dL | LIPASE [2]: 11.33 u/L | PHOSPHORUS [2]: 13.73 mg/dL | POTASSIUM [2]: 6.83 MEQ/L | SODIUM [2]: 146 MEQ/L | TOTAL BILIRUBIN [2]: 0.2 mg/dL | TOTAL PROTEIN [2]: 5.83 G/DL | URIC ACID [2]: 1.7 mg/dL | ABSOLUTE BASOPHIL [3]: 0 CELLS/uL | ABSOLUTE EOSINOPHIL [3]: 0 CELLS/uL | ABSOLUTE LYMPHOCYTE [3]: 12645 CELLS/uL | ABSOLUTE MONOCYTE [3]: 541.67 CELLS/uL | ABSOLUTE SEGMENTED NEUTROPHIL [3]: 1413.33 CELLS/uL | BASOPHIL [3]: 0% | EOSINOPHIL [3]: 0% | ERYTHROCYTE COUNT [3]: 5.27 x10E6/uL | HEMATOCRIT [3]: 34.07% | HEMOGLOBIN [3]: 12.83 G/DL | LEUKOCYTE COUNT [3]: 14.6 x10E3/uL | LYMPHOCYTE [3]: 87% | MEAN CORPUSCULAR HEMOGLOBIN [3]: 24.37 pg | MEAN CORPUSCULAR HEMOGLOBIN CONCENTRATION [3]: 37.77 G/DL | MEAN CORPUSCULAR VOLUME [3]: 64.5 fL | MONOCYTE [3]: 3.67% | NEUTROPHIL [3]: 9.33% | NUCLEATED RED BLOOD CELLS [3]: 0.33 /100WBC | PLATELET COUNT [3]: 1063 x10E3/uL | ALANINE AMINOTRANSFERASE [3]: 45.33 u/L | ALBUMIN [3]: 4.27 G/DL | ALKALINE PHOSPHATASE [3]: 387.67 u/L | ASPARTATE AMINOTRANSFERASE [3]: 114 u/L | BLOOD UREA NITROGEN [3]: 22.33 mg/dL | CARBON DIOXIDE [3]: 21.67 mmol/L | CHLORIDE [3]: 99.67 MEQ/L | CHOLESTEROL [3]: 67.33 mg/dL | CREATINE PHOSPHOKINASE [3]: 1341.67 u/L | CREATININE [3]: 0.51 mg/dL | GLUCOSE [3]: 217 mg/dL | LIPASE [3]: 11.67 u/L | PHOSPHORUS [3]: 14.5 mg/dL | POTASSIUM [3]: 7.21 MEQ/L | SODIUM [3]: 143.73 MEQ/L | TOTAL BILIRUBIN [3]: 0.17 mg/dL | TOTAL PROTEIN [3]: 6.07 G/DL | URIC ACID [3]: 2.67 mg/dL
